Patent US20150335025A1 (priority 2014, published 2015)

Test system: Bacillus anthracis Spores
Type: cell-based, Bacillus anthracis (Ames strain)

SMILES: O=S(=O)([O-])OOS(=O)(=O)[O-].[Na+].[Na+] [Klozur ™, sodium persulfate]
- Decontamination effectiveness against B. anthracis, topsoil compared with AZTD: not significantly different
- Inactivation of B. anthracis: complete inactivation
